# Measured values reported in patent US8420657B2 (Novartis AG, priority 2008, dated 2013).
# Experiments:
# [1] = target: T1, GST-JAK2(808-1132) (Homo sapiens, UniProt O60674); experiment: JAK2 kinase assay (Caliper mobility shift, LabChip 3000); type: biochemical
# T1 construct: GST-JAK2(808-1132); purchased Invitrogen (Carlsbad, USA) #4288
# Outline: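 Recombinant GST-JAK2(808-1132) kinase domain with FITC-labelled JAK3tide peptide substrate and ATP; 60 min at 30 °C, EDTA stop. Substrate/product ratio read by microfluidic mobility shift; compounds at 8 final concentrations, 10 to 0.003 μM.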
# [2] = test system: JAK1/JAK2-dependent nuclear translocation of STAT1-GFP in HT1080 fibrosarcoma cells; experiment: STAT1 nuclear translocation assay (Cellomics), IFN-γ stimulated HT1080 STAT1-GFP cells; type: cell-based; conditions: Homo sapiens, HT-1080, STAT1 translocation pathway
# Outline: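 HT1080 cells stably expressing STAT1-GFP, pre-treated 30 min with compound (10 μM–0.003 μM, 0.1% DMSO), then stimulated 2 h with 100 ng/ml IFN-γ, fixed and Hoechst-stained. Nuclear-cytoplasmic GFP differential imaged over ≥1000 cells/well, normalised to unstimulated and DMSO-stimulated wells for IC50.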
# T1 sequence (O60674 808-1132): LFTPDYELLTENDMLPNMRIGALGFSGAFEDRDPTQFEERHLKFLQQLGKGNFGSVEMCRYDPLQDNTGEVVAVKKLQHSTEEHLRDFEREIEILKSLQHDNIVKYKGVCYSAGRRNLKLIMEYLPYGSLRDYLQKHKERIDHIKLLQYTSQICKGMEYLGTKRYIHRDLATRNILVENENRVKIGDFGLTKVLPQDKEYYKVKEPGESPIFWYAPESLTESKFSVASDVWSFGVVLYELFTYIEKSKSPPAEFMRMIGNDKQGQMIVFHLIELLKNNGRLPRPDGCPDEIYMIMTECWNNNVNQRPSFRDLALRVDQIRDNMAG
IC50 [1],IC50 [2],SMILES
< 3 nM,275 nM,"CC(C)Oc1ccc(Nc2ncc3ccn(-c4ccc(CC(=O)N5CCOCC5)cc4)c3n2)cc1 [Example 102, 2-{4-[2-(4-Isopropoxy-phenylamino)-pyrrolo[2,3-d]pyrimidin-7-yl]-phenyl}-1-morpholin-4-yl-ethanone]"
< 3 nM,220 nM,"CC(C)Oc1ccc(Nc2ncc3ccn(-c4ccc(C5(C(=O)N6CCN(C)CC6)CC5)cc4)c3n2)cc1 [Example 103, (1-{4-[2-(4-Isopropoxy-phenylamino)-pyrrolo[2,3-d]pyrimidin-7-yl]-phenyl}-cyclopropyl)-(4-methyl-piperazin-1-yl)-methanone]"
3.6 nM,865 nM,"CC(C)Oc1ccc(Nc2ncc3ccn(-c4ccc(N5CCNCC5=O)cc4)c3n2)cc1 [Example 104, 1-{4-[2-(4-Isopropoxy-phenylamino)-pyrrolo[2,3-d]pyrimidin-7-yl]-phenyl}-piperazin-2-one]"
11.5 nM,5840 nM,"CC(C)Oc1ccc(Nc2ncc3ccn(-c4ccc(N5CCCC5=O)cc4)c3n2)cc1 [Example 105, 1-{4-[2-(4-Isopropoxy-phenylamino)-pyrrolo[2,3-d]pyrimidin-7-yl]-phenyl}-pyrrolidin-2-one]"
33 nM,8380 nM,"CCN1CCN(Cc2ccc(-n3ccc4cnc(Nc5ccc(OC(C)C)cc5)nc43)cc2F)CC1 [Example 106, {7-[4-(4-Ethyl-piperazin-1-ylmethyl)-3-fluoro-phenyl]-7H-pyrrolo[2,3-d]pyrimidin-2-yl}-(4-isopropoxy-phenyl)-amine]"
8.1 nM,1840 nM,"CC(C)Oc1ccc(Nc2ncc3ccn(-c4ccc(CN5CCCC5)cc4)c3n2)cc1 [Example 107, (4-Isopropoxy-phenyl)-[7-(4-pyrrolidin-1-ylmethyl-phenyl)-7H-pyrrolo[2,3-d]pyrimidin-2-yl]-amine]"
6.6 nM,1680 nM,CC(C)Oc1ccc(Nc2ncc3ccn(-c4ccc(CN5CCCNCC5)c(F)c4)c3n2)cc1 [Example 108]
8.3 nM,310 nM,"CC(C)Oc1ccc(Nc2ncc3ccn(-c4ccc(CN5CCOCC5)cc4)c3n2)cc1 [Example 109, (4-Isopropoxy-phenyl)-[7-(4-morpholin-4-ylmethyl-phenyl)-7H-pyrrolo[2,3-d]pyrimidin-2-yl]-amine]"
13.5 nM,1110 nM,"CC(C)Oc1ccc(Nc2ncc3ccn(-c4ccc(CN5CCOCC5)c(Cl)c4)c3n2)cc1 [Example 110, [7-(3-Chloro-4-morpholin-4-yl methyl-phenyl)-7H-pyrrolo[2,3-d]pyrimidin-2-yl]-(4-isopropoxy-phenyl)-amine]"
14.5 nM,846 nM,"Cc1cc(-n2ccc3cnc(Nc4ccc(OC(C)C)cc4)nc32)ccc1CN1CCOCC1 [Example 111, (4-Isopropoxy-phenyl)-[7-(3-methyl-4-morpholin-4-ylmethyl-phenyl)-7H-pyrrolo[2,3-d]pyrimidin-2-yl]-amine]"
< 3 nM,73 nM,"CC(C)Oc1ccc(Nc2ncc3ccn(-c4ccc(CN5CCS(=O)(=O)CC5)c(F)c4)c3n2)cc1 [Example 112, {7-[4-(1,1-Dioxido-thiomorpholin-4-ylmethyl)-3-fluoro-phenyl]-7H-pyrrolo[2,3-d]pyrimidin-2-yl}-(4-isopropoxy-phenyl)-amine]"
4.2 nM,108 nM,"CC(C)Oc1ccc(Nc2ncc3ccn(-c4ccc(CN5CCS(=O)(=O)CC5)c(Cl)c4)c3n2)cc1 [Example 113, {7-[3-Chloro-4-(1,1-dioxido-thiomorpholin-4-ylmethyl)-phenyl]-7H-pyrrolo[2,3-d]pyrimidin-2-yl}-(4-isopropoxy-phenyl)-amine]"
5.9 nM,202 nM,"CC(C)Oc1ccc(Nc2ncc3ccn(-c4ccc(C(C)O)cc4)c3n2)cc1 (stereo not drawn) [Example 114, 1-{4-[2-(4-Isopropoxy-phenylamino)-pyrrolo[2,3-d]pyrimidin-7-yl]-phenyl}-ethanol]"
16 nM,714 nM,"CC(C)Oc1ccc(Nc2ncc3ccn(-c4ccc(CCN5CCOCC5)cc4)c3n2)cc1 [Example 115, (4-Isopropoxy-phenyl)-{7-[4-(2-morpholin-4-yl-ethyl)-phenyl]-7H-pyrrolo[2,3-d]pyrimidin-2-yl}-amine]"
12.5 nM,563 nM,"Cc1ccc(Nc2ncc3ccn(-c4cc(F)c(C(=O)N5CCOCC5)c(F)c4)c3n2)cc1Cl [Example 116, {4-[2-(3-Chloro-4-methyl-phenylamino)-pyrrolo[2,3-d]pyrimidin-7-yl]-2,6-difluoro-phenyl}-morpholin-4-yl-methanone]"
9.4 nM,384 nM,"Cc1ccc(Nc2ncc3ccn(-c4ccc(C5(C(=O)N6CCN(C)CC6)CC5)cc4)c3n2)cc1Cl [Example 117, (1-{4-[2-(3-Chloro-4-methyl-phenylamino)-pyrrolo[2,3-d]pyrimidin-7-yl]-phenyl}-cyclopropyl)-(4-methyl-piperazin-1-yl)-methanone]"
75 nM,1520 nM,"Cc1ccc(Nc2ncc3ccn(-c4ccc(CN5CCOCC5)c(F)c4)c3n2)cc1Cl [Example 118, (3-Chloro-4-methyl-phenyl)-[7-(3-fluoro-4-morpholin-4-ylmethyl-phenyl)-7H-pyrrolo[2,3-d]pyrimidin-2-yl]-amine]"
88 nM,1760 nM,"Cc1ccc(Nc2ncc3ccn(-c4ccc(CN5CCOCC5)cc4)c3n2)cc1Cl [Example 119, (3-Chloro-4-methyl-phenyl)-[7-(4-morpholin-4-ylmethyl-phenyl)-7H-pyrrolo[2,3-d]pyrimidin-2-yl]-amine]"
155 nM,7850 nM,"CCN1CCN(Cc2ccc(-n3ccc4cnc(Nc5ccc(C)c(Cl)c5)nc43)cc2F)CC1 [Example 120, (3-Chloro-4-methyl-phenyl)-{7-[4-(4-ethyl-piperazin-1-ylmethyl)-3-fluoro-phenyl]-7H-pyrrolo[2,3-d]pyrimidin-2-yl}-amine]"
15.5 nM,152 nM,"Cc1ccc(Nc2ncc3ccn(-c4ccc(CN5CCS(=O)(=O)CC5)c(F)c4)c3n2)cc1Cl [Example 121, (3-Chloro-4-methyl-phenyl)-{7-[4-(1,1-dioxido-thiomorpholin-4-ylmethyl)-3-fluoro-phenyl]-7H-pyrrolo[2,3-d]pyrimidin-2-yl}-amine]"
3.3 nM,164 nM,"Cc1cc(Nc2ncc3ccn(-c4ccc(C5(C(=O)N6CCN(C)CC6)CC5)cc4)c3n2)ccc1F [Example 122, (1-{4-[2-(4-Fluoro-3-methyl-phenylamino)-pyrrolo[2,3-d]pyrimidin-7-yl]-phenyl}-cyclopropyl)-(4-methyl-piperazin-1-yl)-methanone]"
28 nM,802 nM,"Cc1cc(Nc2ncc3ccn(-c4ccc(CN5CCOCC5)cc4)c3n2)ccc1F [Example 123, (4-Fluoro-3-methyl-phenyl)-[7-(4-morpholin-4-ylmethyl-phenyl)-7H-pyrrolo[2,3-d]pyrimidin-2-yl]-amine]"
85 nM,2160 nM,"CCN1CCN(Cc2ccc(-n3ccc4cnc(Nc5ccc(F)c(C)c5)nc43)cc2F)CC1 [Example 124, {7-[4-(4-Ethyl-piperazin-1-ylmethyl)-3-fluoro-phenyl]-7H-pyrrolo[2,3-d]pyrimidin-2-yl}-(4-fluoro-3-methyl-phenyl)-amine]"
< 3 nM,120 nM,"Cc1cc(Nc2ncc3ccn(-c4ccc(CN5CCS(=O)(=O)CC5)c(F)c4)c3n2)ccc1F [Example 125, {7-[4-(1,1-Dioxido-thiomorpholin-4-ylmethyl)-3-fluoro-phenyl]-7H-pyrrolo[2,3-d]pyrimidin-2-yl}-(4-fluoro-3-methyl-phenyl)-amine]"
11 nM,1620 nM,"CC(C)Oc1ccc(Nc2ncc3ccn(-c4cc(F)c(CN5CCOCC5)c(F)c4)c3n2)cc1 [Example 126, [7-(3,5-Difluoro-4-morpholin-4-ylmethyl-phenyl)-7H-pyrrolo[2,3-d]pyrimidin-2-yl]-(4-isopropoxy-phenyl)-amine]"
10.5 nM,720 nM,"Cc1cc(Nc2ncc3ccn(-c4ccc(CN5CCOCC5)c(F)c4)c3n2)ccc1F [Example 127, (4-Fluoro-3-methyl-phenyl)-[7-(3-fluoro-4-morpholin-4-ylmethyl-phenyl)-7H-pyrrolo[2,3-d]pyrimidin-2-yl]-amine]"
120 nM,3680 nM,"Cc1ccc(Nc2ncc3ccn(-c4cc(F)c(CN5CCOCC5)c(F)c4)c3n2)cc1Cl [Example 128, (3-Chloro-4-methyl-phenyl)-[7-(3,5-difluoro-4-morpholin-4-ylmethyl-phenyl)-7H-pyrrolo[2,3-d]pyrimidin-2-yl]-amine]"
9 nM,471 nM,"Cc1ccc(Nc2ncc3ccn(-c4cc(F)c(CN5CCS(=O)(=O)CC5)c(F)c4)c3n2)cc1Cl [Example 129, (3-Chloro-4-methyl-phenyl)-{7-[4-(1,1-dioxido-thiomorpholin-4-ylmethyl)-3,5-difluoro-phenyl]-7H-pyrrolo[2,3-d]pyrimidin-2-yl}-amine]"
115 nM,8410 nM,"CCN1CCN(Cc2c(F)cc(-n3ccc4cnc(Nc5ccc(C)c(Cl)c5)nc43)cc2F)CC1 [Example 130, (3-Chloro-4-methyl-phenyl)-{7-[4-(4-ethyl-piperazin-1-ylmethyl)-3,5-difluoro-phenyl]-7H-pyrrolo[2,3-d]pyrimidin-2-yl}-amine]"
16 nM,1500 nM,"Cc1cc(Nc2ncc3ccn(-c4cc(F)c(CN5CCOCC5)c(F)c4)c3n2)ccc1F [Example 131, [7-(3,5-Difluoro-4-morpholin-4-ylmethyl-phenyl)-7H-pyrrolo[2,3-d]pyrimidin-2-yl]-(4-fluoro-3-methyl-phenyl)-amine]"
